From the supplement of paper PMC10307832

Legend:
Assay in all cases: relative viability (nuclei count vs DMSO), 5 days (fraction); higher = more cells survive
Carfilzomib + Linsitinib = compound: CC(C)C[C@H](NC(=O)[C@H](CCc1ccccc1)NC(=O)CN1CCOCC1)C(=O)N[C@@H](Cc1ccccc1)C(=O)N[C@@H](CC(C)C)C(=O)[C@@]1(C)CO1 [Carfilzomib] + C[C@]1(O)C[C@@H](c2nc(-c3ccc4ccc(-c5ccccc5)nc4c3)c3c(N)nccn32)C1 [Linsitinib] (partner 1 µM)
Summary of the method: (§1)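 Nuclei were stained with Hoechst during a one-step fixation (final 0.05% Triton X-100, 1% formaldehyde, 1 ug/ml Hoechst) carried out 5 days after dosing, then counted on 4× images. The cells, lung cancer lines in 1536-well plates, had been dosed by pin tool the day after seeding with one drug alone or a fixed anchor-drug dose plus five library-drug doses (not always all listed) in √10 steps. Relative viability is the nuclei count in treated wells divided by that in vehicle wells, and each value is the median of duplicate plates.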

Crizotinib + AZD7762 = compound: C[C@@H](Oc1cc(-c2cnn(C3CCNCC3)c2)cnc1N)c1c(Cl)ccc(F)c1Cl [Crizotinib] + NC(=O)Nc1cc(-c2cccc(F)c2)sc1C(=O)N[C@H]1CCCNC1 [AZD7762] (partner 0.2 µM)
Summary of the method: as §1

Olaparib + Luminespib = compound: O=C(c1cc(Cc2n[nH]c(=O)c3ccccc23)ccc1F)N1CCN(C(=O)C2CC2)CC1 [Olaparib] + CCNC(=O)c1noc(-c2cc(C(C)C)c(O)cc2O)c1-c1ccc(CN2CCOCC2)cc1 [Luminespib] (partner 0.01 µM)
Summary of the method: as §1

Olaparib + Decitabine = compound: O=C(c1cc(Cc2n[nH]c(=O)c3ccccc23)ccc1F)N1CCN(C(=O)C2CC2)CC1 [Olaparib] + Nc1ncn([C@H]2C[C@H](O)[C@@H](CO)O2)c(=O)n1 [Decitabine] (partner 2 µM)
Summary of the method: as §1

Cell Line | relative viability (Carfilzomib + Linsitinib; first compound 0.001 µM) | relative viability (Carfilzomib + Linsitinib; first compound 0.003162 µM) | relative viability (Carfilzomib + Linsitinib; first compound 0.01 µM) | relative viability (Carfilzomib + Linsitinib; first compound 0.03162 µM) | relative viability (Carfilzomib + Linsitinib; first compound 0.1 µM) | relative viability (Crizotinib + AZD7762; first compound 0.01 µM) | relative viability (Crizotinib + AZD7762; first compound 0.03162 µM) | relative viability (Crizotinib + AZD7762; first compound 0.1 µM) | relative viability (Crizotinib + AZD7762; first compound 0.3162 µM) | relative viability (Crizotinib + AZD7762; first compound 1 µM) | relative viability (Olaparib + Luminespib; first compound 0.08 µM) | relative viability (Olaparib + Luminespib; first compound 0.253 µM) | relative viability (Olaparib + Luminespib; first compound 2.53 µM) | relative viability (Olaparib + Luminespib; first compound 8 µM) | relative viability (Olaparib + Decitabine; first compound 0.08 µM) | relative viability (Olaparib + Decitabine; first compound 0.253 µM) | relative viability (Olaparib + Decitabine; first compound 2.53 µM) | relative viability (Olaparib + Decitabine; first compound 8 µM)
NCI-H1355 | 0.795 | 0.915 | 0.794 | 0.487 | 0.14 | 0.678 | 0.707 | 0.867 | 0.675 | 0.769 | 0.648 | 0.694 | 0.52 | 0.572 | 0.37 | 0.345 | 0.304 | 0.31
LCLC-103H | 0.951 | 0.882 | 1.06 | 1.11 | 0.296 | 0.798 | 0.78 | 0.877 | 0.839 | 0.804 | 1.21 | 0.805 | 1.19 | 0.769 | 0.626 | 0.727 | 0.674 | 0.626
NCI-H838 | 1.02 | 1.02 | 1.05 | 0.676 | 0.116 | 0.975 | 0.919 | 0.969 | 0.9 | 0.974 | 0.332 | 0.218 | 0.229 | 0.219 | 0.416 | 0.32 | 0.354 | 0.323
Calu-6 | 0.941 | 1.15 | 0.934 | 0.202 | 0.08 | – | – | – | – | – | – | – | – | – | – | – | – | –
NCI-H520 | 1.01 | 1.09 | 0.667 | 0.152 | 0.151 | – | – | – | – | – | 0.205 | 0.277 | 0.255 | 0.23 | 0.467 | 0.318 | 0.365 | 0.261
SK-MES-1 | 1.17 | 1.16 | 1.17 | 1.03 | 0.334 | – | – | – | – | – | 0.841 | 0.774 | 0.727 | 0.604 | 0.305 | 0.299 | 0.303 | 0.262
NCI-H661 | 0.501 | 0.851 | 0.552 | 0.424 | 0.171 | – | – | – | – | – | 1.02 | 0.869 | 0.878 | 0.619 | 0.454 | 0.434 | 0.4 | 0.382
NCI-H2342 | – | – | – | – | – | 0.465 | 0.504 | 0.483 | 0.441 | 0.575 | 0.685 | 0.561 | 0.712 | 0.649 | 0.756 | 0.606 | 0.663 | 0.619
SK-LU-1 | 1.08 | 1.34 | 0.949 | 0.173 | 0.161 | – | – | – | – | – | 0.228 | 0.178 | 0.194 | 0.199 | 0.476 | 0.484 | 0.504 | 0.452
A549 | 0.478 | 0.756 | 0.546 | 0.231 | 0.0396 | – | – | – | – | – | – | – | – | – | 0.119 | 0.073 | 0.0622 | 0.0462
NCI-H2009 | 1.24 | 1.28 | 1.22 | 0.494 | 0.0639 | – | – | – | – | – | 1.13 | 0.966 | 0.893 | 0.701 | 0.391 | 0.336 | 0.337 | 0.32
UMC-11 | 0.981 | 1.03 | 1.01 | 0.949 | 0.224 | – | – | – | – | – | 1.06 | 0.855 | 0.683 | 0.414 | 0.497 | – | 0.405 | 0.4
COR-L 105 | 0.937 | 1.05 | 0.879 | 0.297 | 0.249 | – | – | – | – | – | 0.736 | 0.782 | 0.595 | 0.565 | 0.581 | 0.618 | 0.52 | 0.512
EBC-1 | 0.87 | 0.989 | 0.735 | 0.0736 | 0.0886 | – | – | – | – | – | – | – | – | – | – | – | – | –
HCC-78 | 0.554 | 0.585 | 0.545 | 0.385 | 0.214 | 0.657 | 0.686 | 0.618 | 0.572 | 0.487 | – | – | – | – | 0.613 | 0.562 | 0.508 | 0.455
NCI-H1650 | – | – | – | – | – | – | – | – | – | – | 0.245 | 0.188 | 0.2 | 0.195 | 0.432 | 0.39 | 0.32 | 0.354
COR-L23 | 0.939 | 1.05 | 0.867 | 0.0469 | 0.0604 | – | – | – | – | – | 0.722 | 0.539 | 0.448 | 0.186 | 0.353 | 0.266 | 0.216 | 0.199
NCI-H2023 | 0.6 | 0.768 | 0.653 | 0.607 | 0.0783 | – | – | – | – | – | 0.647 | 0.724 | 0.629 | 0.379 | 0.172 | 0.143 | 0.135 | 0.126
NCI-H2228 | 0.592 | 1.04 | 0.524 | 0.156 | 0.103 | – | – | – | – | – | 0.146 | 0.132 | 0.145 | 0.117 | – | – | – | –
HCC-366 | 0.657 | 0.666 | 0.611 | 0.557 | 0.0209 | 0.239 | 0.324 | 0.309 | – | 0.289 | – | – | – | – | 0.186 | 0.144 | 0.0931 | 0.113
NCI-H1299 | 1.02 | 1.05 | 0.971 | 0.239 | 0.106 | – | – | – | – | – | – | – | – | – | – | – | – | –
NCI-H522 | – | – | – | – | – | 0.852 | 0.792 | 0.752 | 0.908 | 0.846 | 1.23 | 1.09 | 0.781 | 0.824 | 0.745 | 0.645 | 0.724 | 0.598
SW 900 | – | – | – | – | – | 0.54 | 0.627 | 0.616 | 0.663 | 0.617 | 0.171 | 0.17 | 0.184 | 0.197 | 0.355 | 0.331 | 0.413 | 0.355
NCI-H1563 | 1.19 | 1.26 | 1.25 | 1.2 | 0.586 | – | – | – | – | – | 1.21 | 0.475 | 0.538 | 0.481 | – | – | – | –
ChaGo-K-1 | – | – | – | – | – | 0.83 | 0.841 | 0.839 | 0.711 | 0.905 | 0.596 | 0.515 | 0.411 | 0.29 | 0.45 | 0.43 | 0.355 | 0.329
SW 1573 | 0.736 | 0.881 | 0.75 | 0.268 | 0.0735 | – | – | – | – | – | 0.376 | 0.221 | 0.204 | 0.158 | 0.32 | 0.301 | 0.16 | 0.139
